Data reported in US6395708B1, “Method for preventing diarrhea” (Novartis, A.G., priority 1999, dated 2002).

Experiments:
[1] = prophylaxis against chemotherapy-induced diarrhea; cited from earlier work
[2] = cited from earlier work
[3] = Octreotide prophylaxis of irinotecan-induced diarrhea in patients receiving irinotecan; type: in vivo; conditions: octreotide prophylactic treatment before or concurrent with irinotecan; octreotide acetate long-acting release formulation 10, 20 or 30 mg
Experimental: In the prophylaxis of diarrhea according to the invention, octreotide may be administered simultaneously with irinotecan, or the compounds may be administered sequentially, in any desired order. Preferably octreotide is administered some days before the first irinotecan administration and subsequent octreotide administrations are before or simultaneous with irinotecan administration, the time of administration (dosing intervals) of octreotide depending on the preferred irinotecan-scheduled regimen. In a preferred embodiment of the present invention, octreotide acetate long-acting release formulation is administered 10-14 days prior to the first irinotecan dose. For example, when irinotecan is administered in a planned 6-week cycle, wherein irinotecan is given intravenously as a single-agent or in combination with other antineoplastic agents such as, e.g., cisplatin, 5-fluoruracil or others, over 30-90 minutes once weekly for 4 weeks followed by a 2-week rest period, octreotide acetate long-acting release formulation may be administered prior to the first irinotecan dose and again on Day 15 or Day 22 of this 6-week cycle. The octreotide acetate long-acting release formulation dosage is 10 mg, 20 mg or 30 mg at the time of each octreotide administration. […]

[4] = patients who experienced this side-effect during a previous course of chemotherapy; cited from earlier work
[5] = intensive, immediate application once diarrhea has started; cited from earlier work

| SMILES | prevention of diarrhea associated with 5-fluorouracil plus leucovorin [1] | treatment of 5-fluorouracil-induced diarrhea ([2]; Meropol et al. 1998) | efficacy in therapy of 5-fluorouracil-induced diarrhea, compared with loperamide ([2]; randomized trial comparing octreotide with loperamide) | severity and duration of diarrhea [3] | prevention of diarrhea associated with cisplatin [4] | frequency of diarrhea [5] | severity of diarrhea [5] |
| --- | --- | --- | --- | --- | --- | --- | --- |
| C[C@@H](O)[C@@H]1NC(=O)[C@H](CCCCN)NC(=O)[C@@H](Cc2c[nH]c3ccccc23)NC(=O)[C@H](Cc2ccccc2)NC(=O)[C@@H](NC(=O)[C@H](N)Cc2ccccc2)CSSC[C@@H](C(=O)N[C@H](CO)[C@@H](C)O)NC1=O (relative stereo) [octreotide, L-cysteinamide,D-phenylalanyl-L-cysteinyl-L-phenylalanyl-D-tryptophyl-L-lysyl-L-threonyl-N-[2-hydro-1-hydroxymethyl) propyl]-, cyclic (2→7)-disulfide; [R-(R*,R*)]] | does not prevent diarrhea | successful in the treatment of 5-fluorouracil-induced diarrhea | more effective than loperamide | avoids or remarkably limits the severity and duration of diarrhea in many cases | active in preventing diarrhea | – | – |
| CN(C)C(=O)C(CCN1CCC(O)(c2ccc(Cl)cc2)CC1)(c1ccccc1)c1ccccc1 [loperamide] | – | – | – | – | – | had not reduced the frequency of diarrhea | often successful in reducing the severity of diarrhea |
